Activity calls are given as the source filed them. The calls are words filed in the database; no cut-off is given here.

The test system of test [1] is Leishmania donovani. Description: Induction of cell cycle arrest in antimony resistant Leishmania donovani BHU575 promastigotes assessed as decrease in accumulation of cells in G0/G1 phase at 5 uM measured after 12 hrs by PI staining based flow cytometry (reference value: 80.7%). Also noted: scale not given: the % may be the effect or the level left. It is filed as functional.

Test [2] concerns the target T1, DNA topoisomerase I (Leishmania donovani (strain BPK282A1)) (UniProt E9BRC0).
T1 sequence (whole entry): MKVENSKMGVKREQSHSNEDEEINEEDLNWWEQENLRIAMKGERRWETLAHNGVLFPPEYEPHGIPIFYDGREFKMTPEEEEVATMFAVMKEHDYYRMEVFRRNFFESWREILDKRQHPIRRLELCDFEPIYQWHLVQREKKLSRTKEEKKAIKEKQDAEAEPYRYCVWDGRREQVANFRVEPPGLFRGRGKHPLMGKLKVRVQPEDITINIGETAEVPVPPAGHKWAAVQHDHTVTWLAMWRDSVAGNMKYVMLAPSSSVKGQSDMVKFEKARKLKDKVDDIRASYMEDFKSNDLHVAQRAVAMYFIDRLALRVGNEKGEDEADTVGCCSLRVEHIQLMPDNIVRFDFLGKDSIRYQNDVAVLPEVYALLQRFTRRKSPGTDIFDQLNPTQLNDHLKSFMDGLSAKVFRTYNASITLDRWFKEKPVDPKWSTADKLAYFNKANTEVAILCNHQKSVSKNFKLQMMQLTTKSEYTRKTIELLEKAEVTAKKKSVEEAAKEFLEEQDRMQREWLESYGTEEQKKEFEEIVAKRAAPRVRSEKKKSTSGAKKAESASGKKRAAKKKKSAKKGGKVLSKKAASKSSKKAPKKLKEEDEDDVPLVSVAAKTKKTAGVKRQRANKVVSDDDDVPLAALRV
Description: Potency index, ratio of Camptothecin IC50 to compound IC50 for inhibition of Leishmania donovani Top1 assessed as relaxation of supercoiled pBluescript SK(+) DNA measured by agarose gel electrophoresis analysis.

Test [3] concerns Leishmania donovani. Description: Induction of cell cycle arrest in antimony resistant Leishmania donovani BHU575 promastigotes assessed as decrease in accumulation of cells in G0/G1 phase at 5 uM measured after 24 hrs by PI staining based flow cytometry (reference value: 80.7%). In kind it is functional. Also noted: scale not given: the % may be the effect or the level left. A general note: A flow cytometer gives signals particle by particle.

For test [4], the system named is Leishmania donovani. Description: Induction of apoptosis in Leishmania donovani Ag83 promastigotes assessed as early apoptotic cells measured at 5 uM after 24 hrs by Annexin V-FITC/PI staining based flow cytometric analysis (reference value: 0.00%). In kind it is functional.
Test [5] relates to Leishmania donovani. Description: Antileishmanial activity against Leishmania donovani Ag83 promastigotes infected in BALB/c mouse assessed as reduction of amastigote burden in liver treated after 3 weeks of infection at 5 to 10 mg/kg, ip twice a week for 3 weeks by Giemsa staining stamp-smear based limiting dilution assay. The settings on record: dose 5-10 mg/kg. It is filed as functional, organism-based.

For another test, the system named is HEK293. Description: Potency index ratio of test compound IC50 to camptothecin IC50 for cytotoxicity against HEK293 cells. In kind it is functional, Homo sapiens.
Test [6] concerns Leishmania donovani. Description: Antileishmanial activity in Leishmania donovani Ag83 promastigotes assessed as fold change in persistent Top1cc-induced DNA breakdown by measuring TUNEL positive cells treated for 6 to 12 hrs followed by compound removal measured after 6 to 12 hrs by confocal microscopic analysis relative to camptothecin. The settings on record: time 6-12 hrs. It is filed as functional.

Test [7] relates to Leishmania donovani. Description: Antileishmanial activity against Leishmania donovani Ag83 promastigotes assessed as cell viability by MTT assay. In kind it is functional, organism-based.
Test [8] deals with T1, DNA topoisomerase I (Leishmania donovani (strain BPK282A1)). Description: Inhibition of Leishmania donovani recombinant Top1 assessed as relaxation of supercoiled pBluescript SK(+) DNA at 5 uM incubated for 30 mins by agarose gel electrophoresis analysis relative to control.
The subject of test [9] is Leishmania donovani. Description: Antileishmanial activity against Leishmania donovani Ag83 promastigotes infected in BALB/c mouse model of visceral leishmaniasis assessed as fold change in T-helper type 1 immunological evoke response in splenocytes by measuring decrease in TGF-beta level treated after 3 weeks of infection at 5 to 10 mg/kg, ip twice a week for 3 weeks by RT-PCR analysis. To be noted: dose 5-10 mg/kg. In kind it is functional.

Test [10] has as its system Leishmania donovani. Description: Induction of apoptosis in Leishmania donovani Ag83 promastigotes assessed as necrotic cells measured at 5 uM after 24 hrs by Annexin V-FITC/PI staining based flow cytometric analysis (reference value: 0.5%). In kind it is functional.
For test [11], the system named is Leishmania donovani. Description: Induction of apoptosis in Leishmania donovani Ag83 promastigotes assessed as late apoptotic cells measured at 5 uM after 24 hrs by Annexin V-FITC/PI staining based flow cytometric analysis (reference value: 0.1%). In kind it is functional.
Test [12] has as its system Leishmania donovani. Description: Induction of apoptosis in Leishmania donovani BHU575 assessed as DNA break accumulation measured at 5 uM after 6 to 24 hrs by TUNEL staining based assay. It is filed as functional, organism-based. To be noted: time 6-24 hrs.
Test [13] concerns the target T1, DNA topoisomerase I (Leishmania donovani (strain BPK282A1)). Description: Binding affinity to topoisomerase I in Leishmania donovani Ag83 whole cell lysate assessed as stabilization of cleavage complex at 5 to 50 uM measured after 30 mins. In kind it is subcellular. The settings on record: dose 5-50 µM.
For test [14], the system named is Leishmania donovani. Description: Induction of apoptosis in Leishmania donovani Ag83 promastigotes assessed as viable cells measured at 5 uM after 12 hrs by Annexin V-FITC/PI staining based flow cytometric analysis (reference value: 99.4%). In kind it is functional.
Test [15] deals with Leishmania donovani. Description: Induction of cell cycle arrest in antimony resistant Leishmania donovani BHU575 promastigotes assessed as decrease in accumulation of cells in G2/M phase at 5 uM measured after 12 hrs by PI staining based flow cytometry (reference value: 8.8%). It is filed as functional. Details: scale not given: the % may be the effect or the level left.
Test [16] concerns Leishmania donovani. Description: Reversal of Top1cc-induced DNA breakdown in Leishmania donovani Ag83 promastigotes by measuring TUNEL positive cells treated for 6 to 12 hrs followed by compound removal measured after 6 to 12 hrs by confocal microscopic analysis relative to camptothecin. In kind it is functional, organism-based. The settings on record: time 6-12 hrs.
Test [17] deals with Leishmania donovani. Description: Antileishmanial activity in Leishmania donovani BHU575 promastigotes assessed as TUNEL positive cells at 5 uM measured after 24 hrs by confocal microscopic analysis relative to control. It is filed as functional.
Test [18] has as its system Leishmania donovani. Description: Antileishmanial activity against antimony resistant Leishmania donovani BHU575 promastigotes infected in BALB/c mouse assessed as reduction of amastigote burden by measuring parasite count in liver treated after 3 weeks of infection at 5 to 10 mg/kg, ip twice a week for 3 weeks by qPCR based kineto-plastid DNA. It is filed as functional, organism-based. To be noted: dose 5-10 mg/kg.

In the next test the test system is MCF7. Description: Potency index ratio of test compound IC50 to camptothecin IC50 for cytotoxicity against human MCF7 cells. In kind it is functional.
Test [19] has as its system Leishmania donovani. Description: Induction of cell cycle arrest in antimony resistant Leishmania donovani BHU575 promastigotes assessed as decrease in accumulation of cells in S phase at 5 uM measured after 24 hrs by PI staining based flow cytometry (reference value: 9.8%). In kind it is functional. Also noted: scale not given: the % may be the effect or the level left.

Test [20] relates to Leishmania donovani. Description: Antileishmanial activity against Leishmania donovani Ag83 promastigotes infected in BALB/c mouse assessed as reduction of amastigote burden by measuring parasite count in spleen treated after 3 weeks of infection at 5 to 10 mg/kg, ip twice a week for 3 weeks by qPCR based kineto-plastid DNA. It is filed as functional, organism-based. To be noted: dose 5-10 mg/kg. (In general: Quantitative PCR measures a nucleic acid by following its amplification.)

The subject of test [21] is Leishmania donovani. Description: Antileishmanial activity against Leishmania donovani Ag83 promastigotes infected in BALB/c mouse model of visceral leishmaniasis assessed as fold change in T-helper type 1 immunological evoke response in splenocytes by measuring decrease in IL-10 level treated after 3 weeks of infection at 5 to 10 mg/kg, ip twice a week for 3 weeks by RT-PCR analysis. In kind it is functional. To be noted: dose 5-10 mg/kg.

The EC50 is the concentration at which the effect is half-maximal. As a reminder, the inhibition is the drop in the measured response relative to a control, in per cent. Consider `COc1cc(-c2nc3ccccc3c3nc4ccccn4c23)cc(OC)c1OC`, for which the Activity in the test with Leishmania donovani [1] came to 46%; in the test on Leishmania donovani [3], 38%; in the test with Leishmania donovani [4] it was 4.9%; with Leishmania donovani [10], 23.1%; with Leishmania donovani [11] it was 70.6%; with Leishmania donovani [14] it was 2%. The Activity came to 27.5% with Leishmania donovani [15], 85% with Leishmania donovani [17] and 22.3% with Leishmania donovani [19]. Moreover, the Ratio IC50 in test [2] is 2.5; with HEK293, 90; with MCF7 it was 90. Further, the result (with Leishmania donovani [5]; with Leishmania donovani [12]; in test [13]; in the test with Leishmania donovani [18]; in the test with Leishmania donovani [20]) was Active. The “fold change (FC)” value in the test on Leishmania donovani [6] turned out to be 3; in the test on Leishmania donovani [9], 2; with Leishmania donovani [21], 2. In addition, in the test on Leishmania donovani [7], the EC50 was found to be 2310 nM. For the same molecule, the inhibition in [8] came out at 85%. Moreover, the outcome in the test with Leishmania donovani [16] was inactive.

(Values after ChEMBL document CHEMBL5316350, “Novel Pyrido[2',1':2,3]imidazo[4,5-c]quinoline Derivative Selectively Poisons Leishmania donovani Bisubunit Topoisomerase 1 to Inhibit the Antimony-Resistant Leishmania Infection in Vivo” (J Med Chem, 2023).)
